# Measured values published in the RepoRT retention time repository.
# Counter-ions that a name gives are not always drawn.
# Assay: RP, Waters ACQUITY Premier BEH C18, 100 × 2.1 mm, 1.7 µm, 40 °C, 0.3 to 0.4 mL/min, estimated dead time 0.73 min; A: water + 0.1% formic acid; B: acetonitrile + 0.1% formic acid; gradient (min/%B) 0/0.5 0.1/0.5 10/80 10.1/99.5 12/0.5 12.1/0.5 14.5/0.5
# Details: stereoisomer not certain
row,SMILES,LC retention time [min]
1,NCCc1ccc(O)c(O)c1 [DOPAMINE],1.74
2,Nc1nc2ncc(CNc3ccc(C(=O)NC(CCC(=O)O)C(=O)O)cc3)nc2c(=O)[nH]1 (configuration not stated) [FOLATE],4.02
3,O=C(O)CNC(=O)c1ccc(O)cc1 [4-HYDROXYHIPPURIC ACID],2.42
4,CC(=O)NCCC(=O)O [N-ACETYL-BETA-ALANINE],1.03
5,O=c1c2cc(O)c(O)cc2oc2cc(O)c(C3OC(CO)C(O)C(O)C3O)c(O)c12 (configuration not stated) [MANGIFERIN],3.75
6,NC(=O)NCCC(=O)O [UREIDOPROPIONATE],1.27
7,O=C(O)C1=COC(OC2OC(CO)C(O)C(O)C2O)C2C(CO)=CCC12 (configuration not stated) [GENIPOSIDIC ACID],1.89
8,C=C1C(=O)OC2C=C(C)CCC=C(C)CCC12 (configuration not stated) [COSTUNOLIDE],7.65
9,CC1C(=O)OC2CC34C5CC(C(C)(C)C)C36C(OC(=O)C6O)OC4(C(=O)O5)C21O (configuration not stated) [GINKGOLIDE A],5.66
10,CC(=O)Nc1c(NC=O)[nH]c(=O)n(C)c1=O [5-ACETYLAMINO-6-FORMYLAMINO-3-METHYLURACIL],1.11
11,NC(=O)c1ccc[n+](C2OC(COP(=O)([O-])O)C(O)C2O)c1 (configuration not stated) [NICOTINAMIDE MONONUCLEOTIDE],0.959
12,O=C(O)CCCCCCCCC(=O)O [SEBACATE],6.03
13,CCCCCCCCCCCCCCCC(=O)NCCO [PALMITOYLETHANOLAMIDE],8.84
14,"Cn1c(=O)c2c([nH]c(=O)n2C)n(C)c1=O [1,3,7-TRIMETHYLURIC ACID]",3.23
15,Nc1ncnc2c1ncn2C1OC2COP(=O)(O)OC2C1O (configuration not stated) [CYCLIC AMP],3.35
16,COc1ccccc1C=CC=O [CASSIASTEAROPTENE],7.94
17,OCC1OC(OCC2OC(OCC3OC(OC4(CO)OC(CO)C(O)C4O)C(O)C(O)C3O)C(O)C(O)C2O)C(O)C(O)C1O (configuration not stated) [STACHYOSE],0.921
18,O=C(O)CNC(=O)c1ccccc1 [HIPPURATE],4.57
19,CC1=C(O)C(=O)C=C2C1=CC=C1C2(C)CCC2(C)C3CC(C)(C(=O)O)CCC3(C)CCC12C (configuration not stated) [CELASTROL],8.6
20,CC(=O)NC1C(O)CC(O)(C(=O)O)OC1C(O)C(O)CO (configuration not stated) [N-ACETYLNEURAMINATE],0.9
21,O=c1c(O)c(-c2ccc(O)cc2)oc2cc(O)cc(O)c12 [KAEMPFEROL],6.13
22,Nc1ccn(C2CC(O)C(CO)O2)c(=O)n1 (configuration not stated) [DEOXYCYTIDINE],1.78
23,Nc1ncnc2c1ncn2C1CC(O)C(COP(=O)(O)O)O1 (configuration not stated) [DEOXYADENOSINE MONOPHOSPHATE],2.07

row,SMILES,LC retention time [min]
1,CC12CCC3c4ccc(O)cc4CCC3C1CCC2O (stereo not drawn) [ESTRADIOL-17ALPHA],7.15
2,O=C(O)c1cccnc1C(=O)O [QUINOLINATE],1.61
3,CC(CCC(=O)O)C1CCC2C3C(=O)CC4CC(O)CCC4(C)C3CCC12C (configuration not stated) [NUTRIACHOLIC ACID],7.25
4,Cc1cn(C2CC(O)C(COP(=O)(O)O)O2)c(=O)[nH]c1=O (configuration not stated) [THYMIDINE-MONOPHOSPHATE],2.73
5,CC(=O)OCC[N+](C)(C)C [ACETYLCHOLINE],0.961
6,Cc1ncc(CO)c(CO)c1O [PYRIDOXINE],2.1
7,O=c1c(O)c(-c2ccc(O)c(O)c2)oc2cc(O)cc(O)c12 [QUERCETIN],5.6
8,Nc1c(O)cccc1C(=O)CC(N)C(=O)O (configuration not stated) [HYDROXYKYNURENINE],2.07
9,CCC(O)C(=O)O (configuration not stated) [2-HYDROXYBUTYRATE],2.82
10,Oc1ccc(O)cc1 [HYDROQUINONE],4.46
11,CC(=O)OCC(=O)C1CCC2C3CCC4=CC(=O)CCC4(C)C3CCC12C (configuration not stated) [DEOXYCORTICOSTERONE ACETATE],7.64
12,O=C(O)Cc1c[nH]c2ccc(O)cc12 [5-HYDROXYINDOLEACETATE],4.41
13,CC(CCC(=O)NCC(=O)O)C1CCC2C3C(O)CC4CC(O)CCC4(C)C3CC(O)C12C (configuration not stated) [GLYCOCHOLATE],6.68
14,CNC(=O)c1cccnc1 [N-METHYLNICOTINAMIDE],1.05
15,O=C(O)CCCCC1CCSS1 [(R)-LIPOIC ACID],6.93
16,O=c1[nH]cnc2c1ncn2C1OC(CO)C(O)C1O (configuration not stated) [INOSINE],3.37
17,CCCCCC(O)CC(=O)CCc1ccc(O)c(OC)c1 (configuration not stated) [GINGEROL],7.34
18,Cc1cc2nc3[nH]c(=O)[nH]c(=O)c3nc2cc1C [LUMICHROME],5.49
19,O=C(O)CCCC(=O)C(=O)O [OXOADIPATE],2.2
20,CC(C)CC(=O)C(=O)O [KETOLEUCINE],4.02
21,CCCCCC=CCC=CCC=CCC=CCCCC(=O)O [ARACHIDONIC ACID],9
22,O=C(O)CNC(=O)c1cccc(O)c1 [3-HYDROXYHIPPURIC ACID],3.03
23,OCC1OC(OCC2OC(OC3(CO)OC(CO)C(O)C3O)C(O)C(O)C2O)C(O)C(O)C1O (configuration not stated) [RAFFINOSE],0.962

row,SMILES,LC retention time [min]
1,COc1ccc(-c2coc3cc(O)ccc3c2=O)cc1 [FORMONONETIN],6.65
2,"O=C(O)C(O)c1ccc(O)c(O)c1 (configuration not stated) [3,4 DIHYDROXYMANDELATE]",1.62
3,O=C(O)CCCCCCCCCCCCCCC(=O)O [HEXADECANEDIOIC ACID],7.67
4,O=C(O)c1cccc(O)c1 [3-HYDROXYBENZOATE],4.72
5,CC(C=CC=C(C)C=CC1=C(C)C(=O)CCC1(C)C)=CC=CC=C(C)C=CC=C(C)C=CC1=C(C)C(=O)CCC1(C)C [CANTHAXANTHIN],11.3
6,Nc1nc2nc[nH]c2c(=O)[nH]1 [GUANINE],1.29
7,CC(C)(N)C(=O)O [2-AMINOISOBUTYRATE],0.886
8,CCCC(=O)O [BUTANOATE],3.99
9,"Cc1cc2nc[nH]c2cc1C [5,6 DIMETHYLBENZIMIDAZOLE]",4.48
10,O=Cc1cccc(O)c1 [3-HYDROXYBENZALDEHYDE],5.11
11,CC(C)C(N)C(=O)O (configuration not stated) [VALINE],1.21
12,Nc1nc2nccnc2c(=O)[nH]1 [PTERIN],2.44
13,Cn1cnc(=N)c2[nH]cnc21 [3-METHYLADENINE],0.904
14,CCCCCCCCCCCCCC=CC(O)C(N)CO (configuration not stated) [SPHINGOSINE],7.39
15,"Nc1ncnc2c1ncn2C1OC(COP(=O)(O)O)C(OP(=O)(O)O)C1O (configuration not stated) [ADENOSINE 3',5'-DIPHOSPHATE]",1.11
16,CC(O)(CCO)CC(=O)O (configuration not stated) [MEVALONATE],2.75
17,O=c1ccn(C2OC(COP(=O)(O)O)C(O)C2O)c(=O)[nH]1 (configuration not stated) [URIDINE MONOPHOSPHATE],1.26
18,O=S(=O)(O)Oc1ccccc1 [PHENOL SULFATE],1.17
19,CC1OC(OCC2OC(Oc3cc(O)c4c(c3)OC(c3ccc(O)cc3)CC4=O)C(O)C(O)C2O)C(O)C(O)C1O (configuration not stated) [NARIRUTIN],4.59
20,"O=c1cc(-c2ccccc2)oc2cc(O)cc(O)c12 [5,7-DIHYDROXYFLAVONE]",7.23
21,CCC(CO)C(=O)O (configuration not stated) [2-ETHYLHYDRACRYLIC ACID],3.81
